Measured values as given in publication PMC12498411, “Antidepressant-like Properties of a Selenium-Containing Pyridinium Salt Explored through In Vitro, In Vivo, and In Silico Approaches” (ACS Chemical Neuroscience, 2025).

Tested on: male Swiss mice
Assay: Open field test (OFT) before the TST
Assay type: in vivo, mouse
Experimental: A dosage of 5 mg/kg (intragastric route, i.g., by gavage) was administered to all groups receiving the salts. […] The TST was conducted 30 min following drug administration, with the OFT being performed 4 min prior to the TST.
Following the selection of the most promising salt during screening (Compound 3B), an analysis of the compound’s time-response curve was conducted in the mouse TST. For this purpose, the animals were divided into five groups: (I) control (water; i.g.), (II) the group receiving compound 3B 15 min prior to TST, (III) the group receiving compound 3B 30 min before TST, (IV) the group receiving compound 3B 60 min before TST, and (V) the group receiving compound 3B 120 min before TST. The dosage of salt was standardized at 5 mg/kg (i.g). OFT was conducted 4 min prior to the TST.
After choosing a suitable preadministration time, the dose–response curve of the compound at this fixed time was analyzed. The animals were categorized into […]: I) a control group (administered water; i.g.) and groups II, III, IV and V) receiving compound 3B at doses of 0.5 mg/kg, 1 mg/kg, 2.5 mg/kg, and 5 mg/kg (i.g.), respectively. […] Thirty minutes postadministration, the animals underwent the TST. Four minutes prior to the TST, they underwent the OFT.
The aim of this behavioral test is to assess the locomotion and exploration behavior of the animals using an open field apparatus measuring 30 cm × 30 cm × 15 cm, constructed from plywood with a floor divided into nine quadrants, facilitating free movement for the animals. During the OFT, the animals were positioned in the center of the apparatus and subjected to a 5 min testing period, following the protocol outlined in literature. The number of quadrant crossings and rearings was recorded and quantified during testing phase.

Cc1ccc(C(=O)C[n+]2ccccc2C[Se]c2ccccc2)cc1 [Compound 3B, 1-(2-oxo-2-(p-tolyl)ethyl)-2-((phenylselanyl)methyl)pyridin-1-ium bromide]
OFT locomotor and exploratory activities, time-response experiment (5 mg/kg i.g., 15–120 min): did not affect the locomotor and exploratory activities | OFT number of crossings, dose–response experiment (0.5–5 mg/kg i.g.): no changes were observed | OFT number of rearings, dose–response experiment (3B 0.5–5 mg/kg i.g., fluoxetine 20 mg/kg i.p.): did not impact on the exploratory behavior profile
